Ends that are not written are not given here. Peptide text beside a SMILES is read from it. * marks the point of attachment. Biotin = O=C1N[C@H]2[C@H](CS[C@H]2CCCCC(=O)*)N1
Legend:
[1] = biological target: T1, PDZ protein (GST-PDZ fusion) (Homo sapiens, UniProt O60307); test: G' assay (10 uM PL peptide), results of TABLE 7 and TABLE 12; format: binding; settings: PDZ KIAA0561, PDZ Domain 1
T1 construct: made in house; host or cells: E. coli (DH5alpha, BL21 or JM109)
Procedure, shortened: (§1)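 Binding classes derive from A450 nm of bound biotin-tagged PL peptide. A score of 5 needs A450 above 4 in more than two repeats.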

[2] = biological target: T2, PDZ protein (GST-PDZ fusion) (Homo sapiens, UniProt Q9ULD6); test: as above; format: binding; settings: PDZ KIAA1284, PDZ Domain 1
T2 construct: made in house; host or cells: E. coli (DH5alpha, BL21 or JM109)
T2 sequence (Q9ULD6 1-942): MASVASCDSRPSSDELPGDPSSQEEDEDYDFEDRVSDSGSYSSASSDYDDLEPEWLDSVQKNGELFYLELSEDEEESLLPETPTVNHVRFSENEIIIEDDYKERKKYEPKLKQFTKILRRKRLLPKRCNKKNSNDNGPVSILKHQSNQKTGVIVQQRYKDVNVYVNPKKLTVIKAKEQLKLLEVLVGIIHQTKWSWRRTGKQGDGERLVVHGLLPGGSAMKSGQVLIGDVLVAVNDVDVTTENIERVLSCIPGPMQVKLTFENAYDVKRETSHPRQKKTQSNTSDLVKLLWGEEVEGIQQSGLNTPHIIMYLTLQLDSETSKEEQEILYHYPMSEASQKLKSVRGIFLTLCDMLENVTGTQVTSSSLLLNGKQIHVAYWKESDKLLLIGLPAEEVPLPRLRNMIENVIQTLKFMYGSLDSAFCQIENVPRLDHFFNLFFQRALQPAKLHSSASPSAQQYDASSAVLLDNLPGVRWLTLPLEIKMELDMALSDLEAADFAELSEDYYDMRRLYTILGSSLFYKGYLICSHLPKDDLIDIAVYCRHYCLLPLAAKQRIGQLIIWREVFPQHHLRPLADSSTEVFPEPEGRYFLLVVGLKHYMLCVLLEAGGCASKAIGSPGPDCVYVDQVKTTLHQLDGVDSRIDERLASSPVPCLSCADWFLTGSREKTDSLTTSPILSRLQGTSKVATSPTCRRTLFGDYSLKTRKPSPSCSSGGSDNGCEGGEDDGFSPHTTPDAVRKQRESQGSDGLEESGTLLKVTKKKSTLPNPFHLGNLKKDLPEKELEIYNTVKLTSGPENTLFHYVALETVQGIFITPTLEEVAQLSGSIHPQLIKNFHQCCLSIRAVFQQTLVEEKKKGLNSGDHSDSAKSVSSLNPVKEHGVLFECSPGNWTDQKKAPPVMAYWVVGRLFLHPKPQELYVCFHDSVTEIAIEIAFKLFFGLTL
Procedure, shortened: as §1

T1 sequence (O60307 whole entry, the tested form may be a part): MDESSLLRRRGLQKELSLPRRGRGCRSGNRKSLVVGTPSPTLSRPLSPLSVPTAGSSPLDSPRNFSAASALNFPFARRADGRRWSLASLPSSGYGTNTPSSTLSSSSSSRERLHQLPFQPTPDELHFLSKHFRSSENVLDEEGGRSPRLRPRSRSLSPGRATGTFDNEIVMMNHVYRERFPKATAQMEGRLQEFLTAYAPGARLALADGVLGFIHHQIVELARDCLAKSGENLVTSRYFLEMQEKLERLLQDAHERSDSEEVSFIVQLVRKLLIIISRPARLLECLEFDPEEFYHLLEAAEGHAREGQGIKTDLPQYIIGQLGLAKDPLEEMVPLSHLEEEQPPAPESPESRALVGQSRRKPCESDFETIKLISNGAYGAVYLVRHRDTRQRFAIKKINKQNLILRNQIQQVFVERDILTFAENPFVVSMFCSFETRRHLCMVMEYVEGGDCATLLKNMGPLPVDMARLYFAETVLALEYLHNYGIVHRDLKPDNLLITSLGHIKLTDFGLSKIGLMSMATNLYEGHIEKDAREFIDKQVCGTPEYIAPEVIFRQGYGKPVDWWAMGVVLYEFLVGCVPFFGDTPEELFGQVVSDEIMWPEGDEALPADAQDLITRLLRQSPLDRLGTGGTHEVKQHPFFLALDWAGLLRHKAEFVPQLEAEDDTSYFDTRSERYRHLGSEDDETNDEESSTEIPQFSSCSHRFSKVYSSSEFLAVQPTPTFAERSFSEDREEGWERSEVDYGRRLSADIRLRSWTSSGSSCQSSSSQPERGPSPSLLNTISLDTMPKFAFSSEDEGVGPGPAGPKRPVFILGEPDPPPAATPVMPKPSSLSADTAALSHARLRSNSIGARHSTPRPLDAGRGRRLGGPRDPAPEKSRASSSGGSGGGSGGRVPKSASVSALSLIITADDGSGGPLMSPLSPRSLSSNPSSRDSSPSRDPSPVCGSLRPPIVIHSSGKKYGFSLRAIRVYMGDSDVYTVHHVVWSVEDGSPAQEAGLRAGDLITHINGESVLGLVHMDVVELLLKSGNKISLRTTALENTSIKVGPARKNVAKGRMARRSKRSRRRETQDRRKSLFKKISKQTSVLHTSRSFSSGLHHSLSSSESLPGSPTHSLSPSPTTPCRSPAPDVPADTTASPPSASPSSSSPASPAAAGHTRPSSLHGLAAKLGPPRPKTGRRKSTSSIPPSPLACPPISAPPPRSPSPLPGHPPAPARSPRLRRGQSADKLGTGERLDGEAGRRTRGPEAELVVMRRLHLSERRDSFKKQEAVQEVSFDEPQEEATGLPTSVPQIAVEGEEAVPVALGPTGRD

Q: Which Classification [1] does the source give for `CC[C@H](C)[C@H](NC(=O)[C@H](Cc1ccc(O)cc1)NC(=O)[C@H](CC(C)C)NC(=O)[C@H](CCC(N)=O)NC(=O)[C@H](Cc1c[nH]cn1)NC(=O)[C@H](CO)NC(=O)[C@H](C)NC(=O)[C@H](CC(C)C)NC(=O)[C@@H](NC(=O)[C@H](CC(=O)O)NC(=O)[C@H](CCSC)NC(=O)[C@H](Cc1ccccc1)NC(=O)[C@@H]1CCCN1C(=O)[C@H](CCCNC(=N)N)NC(=O)[C@@H](NC(=O)[C@H](CC(C)C)NC(=O)[C@H](CC(N)=O)NC(=O)[C@H](CC(=O)O)NC(=O)[C@@H](NC(=O)[C@H](CO)NC(=O)CCCC[C@@H]1SC[C@@H]2NC(=O)N[C@@H]21)[C@@H](C)O)C(C)C)[C@@H](C)O)C(=O)O` [presenilin-2] (Biotin-STDNLVRPFMDTLASHQLYI-OH; C-terminus assumed) here?
A: The Classification was 1 (A450 nm 0-1).

Q: With “KTMPAATYRLLTGQEQPVYL (Biotin-KTMPAATYRLLTGQEQPVYL) [MINT-3]” as the compound, how does the Classification [1] read?
A: The Classification was 1 (A450 nm 0-1).

Q: How did the Classification [2] turn out when `CSCC[C@H](NC(=O)[C@H](C)NC(=O)[C@H](CCCNC(=N)N)NC(=O)CNC(=O)[C@@H](NC(=O)[C@H](Cc1c[nH]c2ccccc12)NC(=O)[C@H](CCCNC(=N)N)NC(=O)CNC(=O)CCCC[C@@H]1SC[C@@H]2NC(=O)N[C@@H]21)[C@@H](C)O)C(=O)N[C@@H](CO)C(=O)N[C@@H](C)C(=O)N[C@@H](Cc1c[nH]c2ccccc12)C(=O)N[C@@H](CCCCN)C(=O)N1CCC[C@H]1C(=O)N[C@H](C(=O)N[C@@H](CCCNC(=N)N)C(=O)N[C@@H](CCCNC(=N)N)C(=O)N[C@@H](CCC(=O)O)C(=O)N[C@H](C(=O)N[C@@H](CCC(=O)O)C(=O)N[C@H](C(=O)O)C(C)C)[C@@H](C)O)[C@@H](C)O` [HPV E6 #35 (modified)] (Biotin-GRWTGRAMSAWKPTRRETEV-OH; C-terminus assumed) was run?
A: Its Classification is 1 (A450 nm 0-1).

Q: Which Classification [2] does the source give for “A2AA_HUMAN (modified) (Biotin-HDFRRAFKKILARGDRKRIV; not fully specified)” here?
A: The Classification was 1 (A450 nm 0-1).
